These results are taken from US20220071947A1, “PHARMACEUTICAL APPLICATION OF DIMYRICETIN-BASED DISELENIDE” (Shanghai Spark Pharmaceutical Co., Ltd., priority 2020, published 2022).

Molecules are shown by their SMILES. ≈ marks a conversion by molar mass, not a printed value. Where two headings read alike, the source gives them in different places.

Test [1] has as its system Calu-3 human lung adenocarcinoma cells (pleural effusion). As to the kind of experiment: CCK-8 in vitro anti-tumor screening, human lung adenocarcinoma cells (pleural effusion). The format is cell-based. Conditions: calu-3 cells, 24 h. How it is done: (§1) In vitro screening of the efficacy of dimyricetin-based diselenide on 7 different human tumor cells (HEP3B2.1.7, NCI-H460, CALU-3, SW480, SIHA, PC-3, MGC80-3) was performed. Using the CCK-8 detection method, 10 drug concentrations was designed, and each concentration was arranged in 3 re-holes. […], 24 h, 48 h, and 72 h, was selected according to dynamic microscopy. The positive drug was cisplatin. Cisplatin concentration gradient designed: 0 (i.e., the solvent control group), 1 μM, 5 μM, 10 μM, 20 μM, 40 μM, 60 μM, 80 μM, 100 μM, 135 μM. Dimyricetin-based diselenide drug concentration gradient designed: 0 (i.e., solvent control group), 1 μg/ml, 5 μg/ml, 25 μg/ml, 50 μg/ml, 75 μg/ml, 100 μg/ml, 125 μg/ml, 150 μg/ml, 200 μg/ml.
(§2) Step 1. Cell culture. […]
(§3) Step 3. […] Step 3-4, measuring the absorbance value: a microplate reader was used to measure the 450 nm absorbance value, and the inhibitory rate of the drug on the cells was calculated according to the formula. […]
(§4) Experimental group: the absorbance value of the cells and CCK-8 solution in the experimental group
(§5) Negative control: the absorbance value of control cells and CCK-8 solution
(§6) Blank control: absorbance value of medium and CCK-8 solution […]

For test [2], the system named is SW480 primary colorectal cancer cells. As to the kind of experiment: CCK-8 in vitro anti-tumor screening, primary colorectal cancer cells. Type of test: cell-based, human. On the procedure: as §1, §2, §3, §4, §5, §6
For test [3], the system named is Siha human cervical squamous cell carcinoma cells. As to the kind of experiment: CCK-8 in vitro anti-tumor screening, human cervical squamous cell carcinoma cells. Type of test: cell-based. How it is done: as §1, §2, §3, §4, §5, §6
In a further test the target is 2019-nCoV-M^pro protease (Severe acute respiratory syndrome coronavirus 2, UniProt P0DTD1). As to the kind of experiment: M^pro protease activity inhibition, fluorescence resonance energy transfer method. The format is biochemical. Conditions: 30 nM protease, 20 μM substrate, 10 min preincubation at 30° C. From the text: This example was the detection of M^pro protease activity inhibition of the targeted 2019-nCoV virus.
The mechanism is: after the new coronavirus invades the cell, it will use the host cell to synthesize two ultra-long replicase polypeptides (pp1a and pp1ab) necessary for self-replication. The replicase polypeptide needs to be further cut into multiple proteins (such as RdRp, helicase, etc.), and then assembled into the replication and transcription machinery required for the virus to initiate the replication of its own genetic material. M^pro has at least 11 cleavage sites on the replicase polypeptide. […]
The fluorescence resonance energy transfer method was used to evaluate the inhibitory activity of dimyricetin-based diselenide on 2019-nCoV-M^pro protease.
Specific detection method: the volume of the entire enzymatic reaction system is 120 μL, the final concentration of protease is 30 nM, and the final concentration of substrate is 20 μM. […] The substrate was added and quickly placed in the microplate reader for reading. […] The test time is 10 min, and the fluorescence value is read every 30 seconds. The final result is the first 2 minutes reading to fit the reaction rate, and compared with the control group (DMSO) to calculate the inhibition rate.

In test [4] the test system is HEP3B2.1.7 human liver cancer cells. As to the kind of experiment: CCK-8 in vitro anti-tumor screening, human liver cancer cells. Type of test: cell-based. Conditions: HEP3B cells. On the procedure:
as §1, §2, §3, §4, §5, §6

For test [5], the system named is NCI-H460 human lung cancer cells (large cell lung cancer). The test can be described thus: CCK-8 in vitro anti-tumor screening, human lung cancer cells (large cell lung cancer). The format is cell-based. How it is done:
as §1, §2, §3, §4, §5, §6

The subject of test [6] is MGC80-3(MGC-803) human gastric cancer cells. As to the kind of experiment: CCK-8 in vitro anti-tumor screening, human gastric cancer cells. The format is cell-based. Conditions: 24 h. On the procedure: as §1, §2, §3, §4, §5, §6
For test [7], the system named is PC-3 human prostate cancer cells. As to the kind of experiment: CCK-8 in vitro anti-tumor screening, human prostate cancer cells. Type of test: cell-based. Conditions: pc-3 cells. On the procedure:
as §1, §2, §3, §4, §5, §6

As to `O=c1c(O)c(-c2cc(O)c(O)c(O)c2)oc2c([Se][Se]c3c(O)cc(O)c4c(=O)c(O)c(-c5cc(O)c(O)c(O)c5)oc34)c(O)cc(O)c12` [Dimyricetin-based diselenide, 8,8′-diselanediylbis(3,5,7-trihydroxy-2-(3,4,5-trihydroxyphenyl)-4H-1-benzopyran-4-one)], the IC50 was 22.9 µg/mL (≈ 29 µM) in test [1]; 12.4 µg/mL in test [2] (Homo sapiens, 24 h); 19.1 µg/mL in test [3] (Homo sapiens, 24 h); 0.807 ± 0.083 µM at 2019-nCoV-M^pro protease (read-out: IC50); 0.806 µM on 2019-nCoV-M^pro protease (read-out: IC50 (μg/ml) (converted)); 25.2 µg/mL in test [4] (Homo sapiens, 24 h). For the same compound, the IC50 in test [5] (Homo sapiens, NCI-H460, 24 h) turned out to be 27.9 µg/mL; in test [6] (Homo sapiens, MGC-803, MGC803 cells), 9.08 µg/mL; in test [7] (Homo sapiens, 24 h), 7.72 µg/mL.

For `N.N.[Cl][Pt][Cl]` [Cisplatin, cisplatin, reference compound], the IC50 in test [2] (48 h) came to 46.7 µM; in test [3] (48 h), 65.5 µM; in test [4] (48 h), 8.83 µM; in test [5] (48 h) it was 47.4 µM; in test [6] (MGC803 cells) it was 23.2 µM; in test [7] (48 h) it was 45.7 µM.
